For 27 compounds, IC50 results are on record in patent publication US11203613B2, “Peptidomimetic proteasome inhibitors” (CORNELL UNIVERSITY, priority 2017, dated 2021).

The experiment addresses Human Constitutive (Hu C-20S) β5 Active Subunit (Homo sapiens, UniProt P28074). Nature of the experiment: IC50 determination, human constitutive 20S proteasome β5c (suc-LLVY-AMC hydrolysis). In kind it is biochemical. Particulars: Table 3; IC50 against human constitutive β5 active subunit; read-out: Hu-C20S β5.
As for `C[C@H]1CCCCN1C(=O)C[C@H](NC(=O)C1CC2(C1)CC(F)(F)C2)C(=O)NC1(c2nc3cccc(F)c3[nH]2)CC1` (stereo in doubt) [CEN-62, 6,6-Difluoro-N—((S)-1-((1-(7-fluoro-1H-benzo[d]imidazol-2-yl)cyclopropyl)amino)-4-((S)-2-methylpiperidin-1-yl)-1,4-dioxobutan-2-yl)spiro[3.3]heptane-2-carboxamide], the IC50 stood at 2.4 µM.

As for `CC[C@H]1CCCCN1C(=O)C[C@H](N)C(=O)N[C@@H](C)c1nc2c(F)cccc2[nH]1` [CEN-1, (S)-2-Amino-4-((S)-2-ethylpiperidin-1-yl)-N—((S)-1-(4-fluoro-1H-benzo[d]imidazol-2-yl)ethyl)-4-oxobutanamide], the IC50 came out at 14.2 µM. Consider `CC[C@H]1CCCCN1C(=O)C[C@H](NC(=O)CC1CC1)C(=O)N[C@@H](C)c1nc2c(F)cccc2[nH]1` [CEN-2, (S)-2-(2-Cyclopropylacetamido)-4-((S)-2-ethylpiperidin-1-yl)-N—((S)-1-(4-fluoro-1H-benzo[d]imidazol-2-yl)ethyl)-4-oxobutanamide], for which the IC50 came out at 16.9 µM. Consider `CC[C@H]1CCCCN1C(=O)C[C@H](NC(=O)CCC(C)C)C(=O)N[C@@H](C)c1nc2c(F)cccc2[nH]1` [CEN-3, N—((S)-4-((S)-2-Ethylpiperidin-1-yl)-1-(((S)-1-(4-fluoro-1H-benzo[d]imidazol-2-yl)ethyl)amino)-1,4-dioxobutan-2-yl)-4-methylpentanamide], for which the IC50 worked out at 10.6 µM.

For `CC[C@H]1CCCCN1C(=O)C[C@H](NC(=O)CCN(C)C)C(=O)N[C@@H](C)c1nc2c(F)cccc2[nH]1` [CEN-4, (S)-2-(3-(Dimethylamino)propanamido)-4-((S)-2-ethylpiperidin-1-yl)-N—((S)-1-(4-fluoro-1H-benzo[d]imidazol-2-yl)ethyl)-4-oxobutanamide], the IC50 is 6.4 µM. In the case of `CC[C@H]1CCCCN1C(=O)C[C@H](NC(=O)OCC(C)C)C(=O)N[C@@H](C)c1nc2c(F)cccc2[nH]1` [CEN-5, Isobutyl ((S)-4-((S)-2-Ethylpiperidin-1-yl)-1-(((S)-1-(4-fluoro-1H-benzo[d]imidazol-2-yl)ethyl)amino)-1,4-dioxobutan-2-yl)carbamate], the IC50 amounted to 2.5 µM. As for `CC[C@H]1CCCCN1C(=O)C[C@H](NC(=O)c1cc(C)on1)C(=O)N[C@@H](C)c1nc2c(F)cccc2[nH]1` [CEN-6, N—((S)-4-((S)-2-Ethylpiperidin-1-yl)-1-(((S)-1-(4-fluoro-1H-benzo[d]imidazol-2-yl)ethyl)amino)-1,4-dioxobutan-2-yl)-5-methylisoxazole-3-carboxamide], the IC50 was found to be 7.1 µM. Then `CC[C@H]1CCCCN1C(=O)C[C@H](NC(=O)CC(F)(F)F)C(=O)N[C@@H](C)c1nc2c(F)cccc2[nH]1` [CEN-7, (S)-4-((S)-2-Ethylpiperidin-1-yl)-N—((S)-1-(4-fluoro-1H-benzo[d]imidazol-2-yl)ethyl)-4-oxo-2-(3,3,3-trifluoropropanamido)butanamide], with 4.2 µM; and `CC[C@H]1CCCCN1C(=O)C[C@H](Nc1nc(C(C)C)no1)C(=O)N[C@@H](C)c1nc2c(F)cccc2[nH]1` [CEN-8, (S)-4-((S)-2-Ethylpiperidin-1-yl)-N—((S)-1-(4-fluoro-1H-benzo[d]imidazol-2-yl)ethyl)-2-((3-isopropyl-1,2,4-oxadiazol-5-yl)amino)-4-oxobutanamide], with 3.6 µM.

Take `CC[C@H]1CCCCN1C(=O)C[C@H](NC(=O)C1CC(C)(C)C1)C(=O)N[C@@H](C)c1nc2c(F)cccc2[nH]1` [CEN-9, N—((S)-4-((S)-2-Ethylpiperidin-1-yl)-1-(((S)-1-(4-fluoro-1H-benzo[d]imidazol-2-yl)ethyl)amino)-1,4-dioxobutan-2-yl)-3,3-dimethylcyclobutane-1-carboxamide]: the IC50 turned out to be 4.4 µM.

As to `CC[C@H]1CCCCN1C(=O)C[C@H](NC(=O)C1CC1C(C)C)C(=O)N[C@@H](C)c1nc2c(F)cccc2[nH]1` (stereo partly drawn) [CEN-10, N—((S)-4-((S)-2-Ethylpiperidin-1-yl)-1-(((S)-1-(4-fluoro-1H-benzo[d]imidazol-2-yl)ethyl)amino)-1,4-dioxobutan-2-yl)-2-isopropylcyclopropane-1-carboxamide], the IC50 was 37.7 µM.

Turning to `CC[C@H]1CCCCN1C(=O)C[C@H](NC(=O)c1cncs1)C(=O)N[C@@H](C)c1nc2c(F)cccc2[nH]1` [CEN-11, N—((S)-4-((S)-2-Ethylpiperidin-1-yl)-1-(((S)-1-(4-fluoro-1H-benzo[d]imidazol-2-yl)ethyl)amino)-1,4-dioxobutan-2-yl)thiazole-5-carboxamide], the IC50 amounted to 19.2 µM. As to `CC[C@H]1CCCCN1C(=O)C[C@H](NC(=O)N1CCCCC1)C(=O)N[C@@H](C)c1nc2c(F)cccc2[nH]1` [CEN-12, N—((S)-4-((S)-2-Ethylpiperidin-1-yl)-1-(((S)-1-(4-fluoro-1H-benzo[d]imidazol-2-yl)ethyl)amino)-1,4-dioxobutan-2-yl)piperidine-1-carboxamide], the IC50 turned out to be 3 µM. For the compound `CC[C@H]1CCCCN1C(=O)C[C@H](NC(=O)CCC(C)(C)C)C(=O)N[C@@H](C)c1nc2c(F)cccc2[nH]1` [CEN-13, N—((S)-4-((S)-2-Ethylpiperidin-1-yl)-1-(((S)-1-(4-fluoro-1H-benzo[d]imidazol-2-yl)ethyl)amino)-1,4-dioxobutan-2-yl)-4,4-dimethylpentanamide], the IC50 was found to be 11.2 µM. Consider `CC[C@H]1CCCCN1C(=O)C[C@H](NC(=O)N1CCOCC1)C(=O)N[C@@H](C)c1nc2c(F)cccc2[nH]1` [CEN-14, N—((S)-4-((S)-2-Ethylpiperidin-1-yl)-1-(((S)-1-(4-fluoro-1H-benzo[d]imidazol-2-yl)ethyl)amino)-1,4-dioxobutan-2-yl)morpholine-4-carboxamide], for which the IC50 worked out at 4.5 µM. In the case of `CC[C@H]1CCCCN1C(=O)C[C@H](NC(=O)N(C)CC(C)C)C(=O)N[C@@H](C)c1nc2c(F)cccc2[nH]1` [CEN-15, (S)-4-((S)-2-Ethylpiperidin-1-yl)-N—((S)-1-(4-fluoro-1H-benzo[d]imidazol-2-yl)ethyl)-2-(3-isobutyl-3-methylureido)-4-oxobutanamide], the IC50 amounted to 5 µM.

On to `CC[C@H]1CCCCN1C(=O)C[C@H](Nc1nc2ccccc2o1)C(=O)N[C@@H](C)c1nc2c(F)cccc2[nH]1` [CEN-16, (S)-2-(Benzo[d]oxazol-2-ylamino)-4-((S)-2-ethylpiperidin-1-yl)-N—((S)-1-(4-fluoro-1H-benzo[d]imidazol-2-yl)ethyl)-4-oxobutanamide], for which the IC50 worked out at 4.5 µM. The value for `CC[C@H]1CCCCN1C(=O)C[C@H](NC(=O)C1CC2(CCC2)C1)C(=O)N[C@@H](C)c1nc2c(F)cccc2[nH]1` [CEN-17, N—((S)-4-((S)-2-Ethylpiperidin-1-yl)-1-(((S)-1-(4-fluoro-1H-benzo[d]imidazol-2-yl)ethyl)amino)-1,4-dioxobutan-2-yl)spiro[3.3]heptane-2-carboxamide] was 13.4 µM. As for `CC[C@H]1CCCCN1C(=O)C[C@H](NC(=O)c1cnc(C)s1)C(=O)N[C@@H](C)c1nc2c(F)cccc2[nH]1` [CEN-18, N—((S)-4-((S)-2-Ethylpiperidin-1-yl)-1-(((S)-1-(4-fluoro-1H-benzo[d]imidazol-2-yl)ethyl)amino)-1,4-dioxobutan-2-yl)-2-methylthiazole-5-carboxamide], the IC50 was 9.5 µM. Consider `CC[C@H]1CCCCN1C(=O)C[C@H](Nc1nc2ccc(C)cc2o1)C(=O)N[C@@H](C)c1nc2c(F)cccc2[nH]1` [CEN-19, (S)-4-((S)-2-Ethylpiperidin-1-yl)-N—((S)-1-(4-fluoro-1H-benzo[d]imidazol-2-yl)ethyl)-2-((6-methylbenzo[d]oxazol-2-yl)amino)-4-oxobutanamide], for which the IC50 worked out at 1.1 µM. Consider `CC[C@H]1CCCCN1C(=O)C[C@H](NC(=O)CCc1ccccc1)C(=O)N[C@@H](C)c1nc2c(F)cccc2[nH]1` [CEN-20, (S)-4-((S)-2-Ethylpiperidin-1-yl)-N—((S)-1-(4-fluoro-1H-benzo[d]imidazol-2-yl)ethyl)-4-oxo-2-(3-phenylpropanamido)butanamide], for which the IC50 came out at 2.6 µM.

In the case of `CC[C@H]1CCCCN1C(=O)C[C@H](NC(=O)NCc1ccccc1)C(=O)N[C@@H](C)c1nc2c(F)cccc2[nH]1` [CEN-21, (S)-2-(3-Benzylureido)-4-((S)-2-ethylpiperidin-1-yl)-N—((S)-1-(4-fluoro-1H-benzo[d]imidazol-2-yl)ethyl)-4-oxobutanamide], the IC50 stood at 9.4 µM. In the case of `CC[C@H]1CCCCN1C(=O)C[C@H](Nc1nc2ccccc2s1)C(=O)N[C@@H](C)c1nc2c(F)cccc2[nH]1` [CEN-22, (S)-2-(Benzo[d]thiazol-2-ylamino)-4-((S)-2-ethylpiperidin-1-yl)-N—((S)-1-(4-fluoro-1H-benzo[d]imidazol-2-yl)ethyl)-4-oxobutanamide], the IC50 amounted to 1.2 µM. Take `CC[C@H]1CCCCN1C(=O)C[C@H](NC(=O)OCc1ccccc1)C(=O)N[C@@H](C)c1nc2c(F)cccc2[nH]1` [CEN-23, Benzyl ((S)-4-((S)-2-Ethylpiperidin-1-yl)-1-(((S)-1-(4-fluoro-1H-benzo[d]imidazol-2-yl)ethyl)amino)-1,4-dioxobutan-2-yl)carbamate]: the IC50 came out at 5.8 µM.

In the case of `CC[C@H]1CCCCN1C(=O)C[C@H](NS(=O)(=O)CCC(C)C)C(=O)N[C@@H](C)c1nc2c(F)cccc2[nH]1` [CEN-24, (S)-4-((S)-2-Ethylpiperidin-1-yl)-N—((S)-1-(4-fluoro-1H-benzo[d]imidazol-2-yl)ethyl)-2-((3-methylbutyl)sulfonamido)-4-oxobutanamide], the IC50 worked out at 17.8 µM. For the compound `CC[C@H]1CCCCN1C(=O)C[C@H](NC(=O)[C@H]1C[C@@H]1c1ccccc1)C(=O)N[C@@H](C)c1nc2c(F)cccc2[nH]1` [CEN-25, (1S,2S)—N—((S)-4-((S)-2-Ethylpiperidin-1-yl)-1-(((S)-1-(4-fluoro-1H-benzo[d]imidazol-2-yl)ethyl)amino)-1,4-dioxobutan-2-yl)-2-phenylcyclopropane-1-carboxamide], the IC50 came to 8.1 µM. Regarding `CC[C@H]1CCCCN1C(=O)C[C@H](NC(=O)N(C)Cc1ccccc1)C(=O)N[C@@H](C)c1nc2c(F)cccc2[nH]1` [CEN-26, (S)-2-(3-Benzyl-3-methylureido)-4-((S)-2-ethylpiperidin-1-yl)-N—((S)-1-(4-fluoro-1H-benzo[d]imidazol-2-yl)ethyl)-4-oxobutanamide], the IC50 amounted to 3.3 µM.
